The record followed here is patent US20260124311A1, “POLYMER-DRUG CONJUGATES FOR STING PATHWAY ACTIVATION” (Vanderbilt University, priority 2022, published 2026).

One assay has as its system IRF and NF-kb pathway. Kind of assay: THP-1 Dual reporter assay of IRF and NF-kb pathway activation. The settings on record: FIG. 19A-B. It counts as cell-based, human. As for the experimental part: Activation of STING. THP1-Dual cells (InvivoGen) were cultured in Roswell Park Memorial Institute (RPMI) 1640 Medium (Gibco) supplemented with 2 mM L-glutamine, 25 mM HEPES, 10% heat-inactivated fetal bovine serum (HI-FBS; Gibco), 100 U mL^−1, penicillin/100 μg mL^−1, streptomycin (Gibco), and 100 μg/mL Normocin. Cells were subjected to 10 μg/mL Blasticidin and 100 μg/mL Zeocin for continual selection after every cell passage. 96-well plates (REF 655180; Greiner Bio-One) were used for screening agonist activity. Reporter cells were seeded at 25,000 cells/well in 100 μL media and treatments were administered in 100 μL of medium. Results were collected 24 hours after treatment using a Quanti-Luc™ (InvivoGen) assay on cell supernatants following manufacturer's instructions. Luminescence was quantified using a plate reader (Synergy H1 Multi-Mode Microplate Reader; Biotek) after supernatants were transferred to opaque-bottom 96-well plates (REF 655073; Greiner Bio-One).
Background: A reporter such as luciferase makes a cellular process visible.

Assay [1] concerns GFP-STING expressing murine embryonic fibroblasts. The settings on record: FIG. 21.
The test system of assay [2] is Interferon-β, CXCL10, TNF, IL-6. The assay can be described thus: PCR analysis of kinetics of STING-mediated gene expression. The format is cell-based.
The subject of assay [3] is STING knockout THP1 Dual cell line. The assay can be described thus: STING knockout THP1 Dual cell line reporter assay. The format is cell-based, human. The settings on record: FIG. 19C-D.
Another assay deals with THP-1 Dual cells. Kind of assay: Cellular uptake by flow cytometry at 37° C. and 4° C. It counts as cell-based, human. The settings on record: FIG. 22A-B. The source says: To confirm the dependence of cellular uptake on endocytosis, a RAFT polymerization was used to synthesize a fluorescent version of 50 kDa DMA-diABZI (36) in which a small amount of azide propyl methacrylamide (2%) was co-polymerized to allow for covalent conjugation to DBCO-Sulfo-Cy5 dye, yielding compound (37), which had 2 Sulfo-Cy5 molecules per chain. […] Therefore, DMA-diABZI appears to cells via endocytosis where it can activate STING signaling within ˜2 hr.
On the technique in general: A flow cytometer gives signals particle by particle.

Consider “diABZI(CTA)-DMA-50k [50 kDa diABZI-DMA (33)]”, for which the “IRF and NF-kb pathway activation” value in the assay with IRF and NF-kb pathway is recorded as “both signaling pathways are engaged”. Also, the “STING activation dynamics (STING-puncta, confocal)” value in assay [1] is given as “delayed STING activation”. Besides, in assay [2], the “time to activation of STING signaling after endocytosis” value is not above 2 h. For the same substance, in assay [3], the “IRF and NF-κβ responses in STING knockout cells” value is reported as “lack of activity”.
On to “diABZI-DMA-co-AzPMA-Sulfo-Cy5 [sCy5-labeled DMA-diABZI (37)]”, for which, in the assay on THP-1 Dual cells, the “cellular uptake at 4° C. versus 37° C.” value is reported as “nearly completely abrogated”.
